Source: US7825126B2 (The United States of America as represented by the …, priority 2004, dated 2010)
Read-outs that look alike come from different tables or passages of the source.

How the values were obtained:
[1] = molecular target: T1, human A2B adenosine receptor (hA2BAR) (Homo sapiens, UniProt P29275); settings: data from literature (footnotes c, f, h); cited from earlier work
T1 sequence (P29275 1-332): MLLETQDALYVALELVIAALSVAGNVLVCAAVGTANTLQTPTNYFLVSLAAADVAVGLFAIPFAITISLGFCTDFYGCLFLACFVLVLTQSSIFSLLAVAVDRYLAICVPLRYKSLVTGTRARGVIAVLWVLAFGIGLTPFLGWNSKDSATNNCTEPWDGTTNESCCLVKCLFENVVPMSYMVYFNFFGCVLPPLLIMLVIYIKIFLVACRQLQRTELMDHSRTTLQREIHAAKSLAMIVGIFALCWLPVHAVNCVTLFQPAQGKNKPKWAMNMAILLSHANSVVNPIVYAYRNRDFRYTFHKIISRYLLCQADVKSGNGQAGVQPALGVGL

[2] = molecular target: T2, human A3 adenosine receptor (Homo sapiens, UniProt P0DMS8); set-up: expressed in transfected cells; host or cells: CHO cells; settings: relative to 10 μM Cl-IB-MECA, data from literature (footnotes c, d, e, f); cited from earlier work
T2 sequence (P0DMS8 1-318): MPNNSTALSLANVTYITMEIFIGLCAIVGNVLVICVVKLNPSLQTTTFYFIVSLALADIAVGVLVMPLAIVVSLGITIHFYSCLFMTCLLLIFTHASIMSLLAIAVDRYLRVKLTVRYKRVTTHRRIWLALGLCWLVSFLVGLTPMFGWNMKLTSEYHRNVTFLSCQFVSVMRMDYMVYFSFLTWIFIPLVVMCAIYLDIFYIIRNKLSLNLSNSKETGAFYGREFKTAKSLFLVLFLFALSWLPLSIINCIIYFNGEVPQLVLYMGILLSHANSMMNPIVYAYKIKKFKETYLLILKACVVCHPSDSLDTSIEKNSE

human A1 receptors [3] = molecular target: T3, human A1 receptors (Homo sapiens, UniProt P30542)
T3 construct: expressed in transfected cells
T3 sequence (P30542 1-326): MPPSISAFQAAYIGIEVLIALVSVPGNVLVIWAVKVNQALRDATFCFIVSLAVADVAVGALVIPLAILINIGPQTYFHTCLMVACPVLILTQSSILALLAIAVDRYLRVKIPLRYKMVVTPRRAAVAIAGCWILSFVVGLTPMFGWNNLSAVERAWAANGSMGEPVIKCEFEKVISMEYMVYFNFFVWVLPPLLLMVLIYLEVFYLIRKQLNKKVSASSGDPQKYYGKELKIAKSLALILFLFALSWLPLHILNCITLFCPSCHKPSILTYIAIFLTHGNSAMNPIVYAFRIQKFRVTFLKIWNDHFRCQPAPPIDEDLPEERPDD

[4] = molecular target: T4, rat A3 adenosine receptor (Rattus norvegicus, UniProt P28647)
T4 construct: expressed in transfected cells; host or cells: CHO cells
T4 sequence (P28647 1-320): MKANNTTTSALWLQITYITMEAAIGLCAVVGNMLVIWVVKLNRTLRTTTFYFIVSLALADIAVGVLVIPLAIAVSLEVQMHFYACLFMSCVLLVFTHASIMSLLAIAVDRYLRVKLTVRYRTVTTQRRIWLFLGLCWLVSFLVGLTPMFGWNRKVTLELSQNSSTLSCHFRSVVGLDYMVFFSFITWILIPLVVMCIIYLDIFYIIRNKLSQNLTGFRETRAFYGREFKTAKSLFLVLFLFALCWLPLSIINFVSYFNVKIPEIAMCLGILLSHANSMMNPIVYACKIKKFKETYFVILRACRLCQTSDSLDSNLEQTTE

[5] = molecular target: T4, rat A3 adenosine receptor; assay: Binding at rat A3 adenosine receptor ([125I]I-AB-MECA, CHO cell membranes); settings: rat A3 AR in CHO cells; unit nM printed in b194 only; read-out: Ki(rA3AR)
Protocol: (§1) Striatal and forebrain tissues from Wistar rats were homogenized in ice-cold 50 mM Tris-HCl buffer, pH 7.4, using an electric homogenizer. The homogenate was centrifuged at 20,000 g for 10 min at 4° C., and the pellet was washed in fresh buffer. The final pellet was stored at −80° C. until the binding experiments. The protein concentration was measured using the Bradford assay. […] The mixtures were incubated at 37° C. for 60 min. […] Filters were washed three times with 9 ml ice-cold buffer. Radioactivity was determined in a Beckman 5500B γ-counter. Statistical analysis Binding and functional parameters were calculated using Prism 5.0 software (GraphPAD, San Diego, Calif., USA). IC50 values obtained from competition curves were converted to Ki values using the Cheng-Prusoff equation.

[6] = molecular target: T2, human A3 adenosine receptor; set-up: expressed in transfected cells; host or cells: CHO cells; settings: data from literature (footnotes c, d, e, f); read-out: Ki(hA3AR); cited from earlier work
human A2A receptors [7] = molecular target: T5, human A2A receptors (Homo sapiens, UniProt P29274)
T5 construct: expressed in transfected cells
T5 sequence (P29274 whole entry): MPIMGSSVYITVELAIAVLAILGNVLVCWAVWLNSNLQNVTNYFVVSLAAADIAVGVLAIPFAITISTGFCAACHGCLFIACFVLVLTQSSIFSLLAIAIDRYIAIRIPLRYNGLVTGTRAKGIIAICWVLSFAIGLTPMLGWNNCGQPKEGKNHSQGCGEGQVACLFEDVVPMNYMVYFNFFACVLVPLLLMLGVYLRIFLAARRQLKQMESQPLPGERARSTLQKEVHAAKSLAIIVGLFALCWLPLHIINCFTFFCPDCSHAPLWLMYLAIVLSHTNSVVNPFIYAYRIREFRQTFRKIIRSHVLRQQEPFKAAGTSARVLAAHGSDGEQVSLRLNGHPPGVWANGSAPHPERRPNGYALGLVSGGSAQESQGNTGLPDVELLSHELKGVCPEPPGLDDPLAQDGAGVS

human A1 receptors [8] = molecular target: T3, human A1 receptors; assay: Binding at human A1 adenosine receptor ([3H]R-PIA, CHO cell membranes); settings: mean ± s.e.m., n = 3-5, read-out: Ki(hA1AR)
Protocol: (§2) Binding assays at the A1 and A2A receptors. […] Reaction was terminated by filtration with GF/B filters.
(§3) Statistical analysis Binding and functional parameters were calculated using Prism 5.0 software (GraphPAD, San Diego, Calif., USA). IC50 values obtained from competition curves were converted to Ki values using the Cheng-Prusoff equation.

human A2A receptors [9] = molecular target: T5, human A2A receptors; assay: Binding at human A2A adenosine receptor ([3H]CGS21680, HEK-293 cell membranes); settings: [3H]CGS 21680; for Ki: mean ± s.e.m., n = 3-5, read-out: Ki(hA2AAR)
Protocol: as §2, §3

[10] = molecular target: T2, human A3 adenosine receptor; assay: Cyclic AMP accumulation assay (inhibition of forskolin-stimulated cAMP), CHO cells expressing human A3 adenosine receptor; settings: for % Activation (hA3AR) at 10 μM: relative to 10 μM Cl-IB-MECA
Protocol: (§4) The cyclic AMP accumulation assay was performed as follows. Intracellular cyclic AMP levels were measured with a competitive protein binding method. […] After centrifugation and resuspension in medium, cells were plated in 24-well plates in 1.0 ml medium. […] The reaction was terminated by removing the supernatant, and cells were lysed upon the addition of 200 μL of 0.1 M ice-cold HCl. The cell lysate was resuspended and stored at −20° C. For determination of cyclic AMP production, protein kinase A (PKA) was incubated with [^3H]cyclic AMP (2 nM) in K2HPO4/EDTA buffer (K2HPO4, 150 mM; EDTA, 10 mM), 20 μL of the cell lysate, and 30 μL 0.1 M HCl or 50 μL of cyclic AMP solution (0-16 pmol/200 μL for standard curve). Bound radioactivity was separated by rapid filtration through Whatman GF/C filters and washed once with cold buffer. Bound radioactivity was measured by liquid scintillation spectrometry.
(§5) Forskolin (10 μM) was used to stimulate cyclic AMP levels.

[11] = molecular target: T2, human A3 adenosine receptor; assay: Binding at human A3 adenosine receptor ([125I]I-AB-MECA, CHO cell membranes); set-up: expressed in transfected cells; host or cells: CHO cells; settings: for Ki: [125I]I-AB-MECA, mean ± s.e.m., n = 3-5, read-out: Ki(hA3AR); for Selectivity for the human A3 adenosine receptor in comparison to the A1 adenosine receptor: ratio of Ki hA1 / hA3
Protocol: as §1

[12] = molecular target: T1, human A2B adenosine receptor (hA2BAR); assay: Activation of human A2B adenosine receptor at 10 μM; type: cell-based; settings: CHO cells
[13] = molecular target: T2, human A3 adenosine receptor
Protocol: as §4, §5

[14] = data from literature (footnotes c, d, f, g); read-out: Ki(hA1AR); cited from earlier work
[15] = rat A3 AR; data from literature (footnotes c, d, f, i); unit nM printed in b194 only; read-out: Ki(rA3AR); cited from earlier work
[16] = read-out: Ki(hA1AR); data from literature (footnotes c, d, f, g); cited from earlier work
[17] = 10 μM; data from Ohno et al. (footnote c); cited from earlier work
[18] = read-out: Ki(hA2AAR); data from literature (footnotes c, d, f, g); cited from earlier work

OCC1OC(n2cnc3c(NCc4cccc(I)c4)ncnc32)C(O)C1O (centres unmarked) [Compound 1a]
% Activation (hA2BAR) at 10 μM [1]: 58%
% Activation (hA3AR) at 10 μM [2]: 46 ± 8%
Ki (human A1 receptors [3]; [14]): 7.4 ± 1.7 nM
Ki [4, 15]: 9.5 ± 1.4 nM

OCC1OC(n2cnc3c(NCc4cccc(I)c4)nc(Cl)nc32)C(O)C1O (centres unmarked) [Compound 1b]
% Activation (hA2BAR) at 10 μM [1]: 16%
% Activation (hA3AR) at 10 μM [2]: 0%
Ki (human A1 receptors [3]; [16]): 17 ± 2 nM
Ki ([4]; read-out: Ki(rA3AR); rat A3 AR; data from literature (footnotes c, d, f, i); unit nM printed in b194 only; cited from earlier work): 2.7 ± 1.2 nM

CNC(=O)[C@@]12C[C@@H]1[C@@H](n1cnc3c(NCc4cccc(I)c4)nc(Cl)nc31)[C@H](O)[C@@H]2O [Compound 5, (1′S,2′R,3′S,4′R,5′S)-[4′-(2-chloro-6-{[(3-iodophenyl)methyl]amino}purin-9-yl)-2′,3′-dihydroxybicyclo[3.1.0]hexyl]-N-methylcarboxamide]
% Activation (hA3AR) at 10 μM [2]: 100^e %
Ki [5]: 1.1 ± 0.1 nM

CNc1ncnc2c1ncn2C1OC(CO)C(O)C1O (centres unmarked) [Compound 6]
% Activation (hA2BAR) at 10 μM [1]: 16%
Ki [6]: 9.3 ± 0.4 nM
% displ. at 10 μM (hA2AAR) (human A2A receptors [7]; [17]): 17%
Ki (human A1 receptors [3]; [16]): 6000 ± 2000 nM
Ki [4, 15]: 6400 ± 1600 nM

CNc1nc(N)nc2c1ncn2C1OC(CO)C(O)C1O (centres unmarked) [Compound 7]
% Activation (hA2BAR) at 10 μM [1]: 11%
Ki [6]: 39 ± 2 nM
% Activation (hA3AR) at 10 μM [2]: 98 ± 3%
% displ. at 10 μM (hA2AAR) (human A2A receptors [7]; [17]): 15%
Ki (human A1 receptors [3]; [16]): 480 ± 20 nM
Ki [4, 15]: > 10000 nM

OCC1OC(n2cnc3c(NC4CC4c4ccccc4)ncnc32)C(O)C1O (centres unmarked) [Compound 10]
% Activation (hA2BAR) at 10 μM [1]: 26%
% Activation (hA3AR) at 10 μM [2]: 101 ± 5%
Ki (human A2A receptors [7]; data from literature (footnotes c, d, f, g); read-out: Ki(hA2AAR); cited from earlier work): 2500 ± 700 nM
Ki [4, 15]: 400 ± 30 nM

Cc1ccccc1CNc1ncnc2c1ncn2C1OC(CO)C(O)C1O (centres unmarked) [Compound 11]
Ki [6]: 47 ± 11 nM
% Activation (hA3AR) at 10 μM [2]: 100 ± 3%
Ki (human A2A receptors [7]; [18]): 760 ± 110 nM
Ki (human A1 receptors [3]; [16]): 39 ± 8 nM
Ki [4, 15]: 38 ± 15 nM

OCC1OC(n2cnc3c(NCc4cccnc4)ncnc32)C(O)C1O (centres unmarked) [Compound 12]
Ki [6]: 4.5 ± 1.1 nM
% Activation (hA3AR) at 10 μM [2]: 100 ± 6%
Ki (human A2A receptors [7]; [18]): 2300 ± 120 nM
Ki (human A1 receptors [3]; [14]): 42 ± 4 nM
Ki [4, 15]: 290 ± 70 nM

OCC1OC(n2cnc3c(NCC(c4ccccc4)c4ccccc4)ncnc32)C(O)C1O (centres unmarked) [Compound 13]
% Activation (hA2BAR) at 10 μM [1]: 70%
% Activation (hA3AR) at 10 μM [2]: 0%
Ki [4, 15]: 540 ± 200 nM

CNC(=O)[C@@]12C[C@@H]1[C@@H](n1cnc3c(NC)nc(Cl)nc31)[C@H](O)[C@@H]2O [Compound 14]
Ki (human A1 receptors [8]): 2100 ± 1700 nM
% displ. at 10 μM (hA2AAR) (human A2A receptors [9]): 6%
% Activation (hA3AR) at 10 μM [10]: 104 ± 7%
Ki [5]: 160 ± 30 nM

CNC(=O)C12CC1C(n1cnc3c(NCc4cccc(Br)c4)nc(Cl)nc31)C(O)C2O (stereo not drawn) [Compound 17, (1′S,2′R,3′S,4′S,5′S)-4′-[6-(3-Bromobenzylamino)-2-chloro-purin-9-yl]-2′,3′-dihydroxy-bicyclo[3.1.0]hexane-1′-carboxylic acid methyl amide]
Ki (human A1 receptors [8]): 270 ± 70 nM
Ki [11]: 0.38 nM
Ki (human A2A receptors [9]): 1300 ± 100 nM
% Activation (hA2BAR) at 10 μM [12]: 38%
Ki [5]: 0.76 ± 0.08 nM
% Activation (hA3AR) at 10 μM [13]: 100 ± 11%

CNC(=O)[C@@]12C[C@@H]1[C@H](n1cnc3c(NCc4cccc(Cl)c4)nc(Cl)nc31)[C@H](O)[C@@H]2O [Compound 18, (1′S,2′R,3′S,4′S,5′S)-4′-[6-(3-Chlorobenzylamino)-2-chloro-purin-9-yl]-2′,3′-dihydroxy-bicyclo[3.1.0]hexane-1′-carboxylic acid methylamide]
Ki (human A1 receptors [8]): 260 ± 60 nM
Ki (human A2A receptors [9]): 2300 ± 100 nM
% Activation (hA2BAR) at 10 μM [12]: 38%
Ki [5]: 1 ± 0.1 nM

CNC(=O)C12CC1C(n1cnc3c(NCc4cc(Cl)ccc4OCc4ccccc4)nc(Cl)nc31)C(O)C2O (stereo not drawn) [Compound 24, (1′S,2′R,3′S,4′S,5′S)-4′-[6-(5-Chloro-2-benzyloxy-benzylamino)-2-chloro-purin-9-yl]-2′,3′-dihydroxy-bicyclo[3.1.0]hexane-1′-carboxylic acid methylamide]
Ki (human A1 receptors [8]): 1200 ± 200 nM
Ki [11]: 5.2 ± 1.3 nM
Ki (human A2A receptors [9]): 850 ± 160 nM
% Activation (hA3AR) at 10 μM [10]: 110 ± 10%
% Activation (hA2BAR) at 10 μM [12]: 49%
Ki [5]: 11 ± 3 nM

CNC(=O)C12CC1C(n1cnc3c(NCc4cc(OC)ccc4OC)nc(Cl)nc31)C(O)C2O (stereo not drawn) [Compound 26, (1′S,2′R,3′S,4′S,5′S)-4′-[6-(2,5-Dimethoxy-benzylamino)-2-chloro-purin-9-yl]-2′,3′-dihydroxy-bicyclo[3.1.0]hexane-1′-carboxylic acid methylamide]
Ki (human A1 receptors [8]): 1600 ± 200 nM
Ki [11]: 1.4 ± 0.2 nM
Selectivity for the human A3 adenosine receptor in comparison to the A1 adenosine receptor [11]: 1200 fold
% displ. at 10 μM (hA2AAR) (human A2A receptors [9]): 52%
% Activation (hA3AR) at 10 μM [10]: 107 ± 10%
% Activation (hA2BAR) at 10 μM [12]: 0%
Ki [5]: 0.87 ± 0.24 nM

CNC(=O)[C@@]12C[C@@H]1[C@@H](n1cnc3c(NCC(c4ccccc4)c4ccccc4)nc(Cl)nc31)[C@H](O)[C@@H]2O [Compound 34]
Ki (human A1 receptors [8]): 1300 ± 100 nM
affinity at the human A3 adenosine receptor (in words) ([11]; 2-chloro, 5′-N-methylamide substituted compounds): subnanomolar
Ki [11]: 0.69 ± 0.02 nM
Selectivity for the human A3 adenosine receptor in comparison to the A1 adenosine receptor [11]: 1900 fold
Ki (human A2A receptors [9]): 1600 ± 100 nM
agonist efficacy at the A3 adenosine receptor (inhibition of forskolin-stimulated adenylate cyclase) ([10]; concentration of 10 μM): agonist
% Activation (hA2BAR) at 10 μM [12]: 46%
Ki [5]: 10 ± 4 nM
% Activation (hA3AR) at 10 μM [13]: 107 ± 9%
